assay: recombinant UMI read abundance after kanamycin selection (control-corrected) (log10(CPM+1)); higher = more efficient recombination; extreme values may be limits of the assay; sequences stand for … in AGTGCAGAGAAAATCGGCCAGTTTTCTCTGCCTGCAGTCCGCATGCCGTGGGACCCCTTGGGTTCTAACCTGTTGCCTAGATTTATGCAGCGGACTGCCTTTCTCCCAAAGTGATAAACCGG…AGGTTGGTTTCACT; site = the 11-nt donor
Outline: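 After plating on IPTG (0.07 mM) plus kanamycin, or unselected, in two replicates, recombinant UMIs were PCR-amplified across the donor–target junction and sequenced. The cells were Escherichia coli co-electroporated with a UMI-tagged donor and donor-binding-loop pair library and a target plasmid with a fixed target and T7-inducible IS621 bridge recombinase. Values are log10(CPM+1), with CPM averaged over replicates and scaled by control-derived factors.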

In order of falling “recombinant UMI read abundance (log10)” value:
1. GTAAGCGCATGGACCGGTTTTCCCGGTAATCCGTATTTGGC (site GTAAGCGCTGC)  3.26
2. CAGTTATCATGGACCGGTTTTCCCGGTAATCCGTATTTGTG (site CAGTTATCTCA)  3.18
3. ACGTACTCATGGACCGGTTTTCCCGGTAATCCGTATTTGGA (site ACGTACTCTTC)  2.95
4. GTAAAGTCATGGACCGGTTTTCCCGGTAATCCGTATTTGCA (site GTAAAGTCTTG)  2.95
5. AGAGCATCATGGACCGGTTTTCCCGGTAATCCGTATTTGGT (site AGAGCATCTAC)  2.89
6. GTGTAAACATGGACCGGTTTTCCCGGTAATCCGTATTTGCT (site GTGTAAACTAG)  2.89
7. CTAGGATCATGGACCGGTTTTCCCGGTAATCCGTATTTGAC (site CTAGAATCTGT)  2.89
8. CTAGAATCATGGACCGGTTTTCCCGGTAATCCGTATTTGAC (site CTAGAATCTGT)  2.83
9. TTAGGATCATGGACCGGTTTTCCCGGTAATCCGTATTTGAT (site TTAGGATCTAT)  2.58
10. AGAGTATCATGGACCGGTTTTCCCGGTAATCCGTATTTGCA (site AAAGTATCTTG)  2.57
11. ACCAGAACATGGACCGGTTTTCCCGGTAATCCGTATTTGAG (site ACCAGAACTCT)  2.19
12. ATGTTTGCATGGACCGGTTTTCCCGGTAATCCGTATTTGAT (site ATGTTTGCTAT)  2.16
13. GTAGGTACATGGACCGGTTTTCCCGGTAATCCGTATTTGAC (site GTAGGTGCTGT)  2.02
14. GGCTAGACATGGACCGGTTTTCCCGGTAATCCGTATTTGAC (site GGCTAGACTGT)  2.02
15. CGGGAAACATGGACCGGTTTTCCCGGTAATCCGTATTTGCA (site CAGGAAACTTG)  2
16. GTAATCGCATGGACCGGTTTTCCCGGTAATCCGTATTTGCG (site GTAATCGCTCG)  1.95
17. AGTGTATCATGGACCGGTTTTCCCGGTAATCCGTATTTGCA (site ACAGTATCTTG)  1.69
18. CGGCCAACATGGACCGGTTTTCCCGGTAATCCGTATTTGTC (site CGGCCAACTGA)  1.56
19. TAGAATACATGGACCGGTTTTCCCGGTAATCCGTATTTGCT (site TAGAATACTAG)  1.3
20. AGGAAGACATGGACCGGTTTTCCCGGTAATCCGTATTTGCA (site AAGTAGACTTG)  1.23
21. CAAGCGACATGGACCGGTTTTCCCGGTAATCCGTATTTGTG (site CAAGCGGCTCA)  1.2
22. CCCATATCATGGACCGGTTTTCCCGGTAATCCGTATTTGTT (site CCCATATCTAA)  1.01
23. CACTTGGCATGGACCGGTTTTCCCGGTAATCCGTATTTGGA (site CACTTGGCTTC)  0.91
24. GAGTATCCATGGACCGGTTTTCCCGGTAATCCGTATTTGCT (site GAGTATCCTAG)  0.75
25. CCTCACTCATGGACCGGTTTTCCCGGTAATCCGTATTTGCT (site CCTCACTCTAG)  0.747
26. TGGTGGACATGGACCGGTTTTCCCGGTAATCCGTATTTGTT (site TGGTGGACTAA)  0.734
27. ATCCGAGCATGGACCGGTTTTCCCGGTAATCCGTATTTGAG (site ATCCAAGCTCT)  0.696
28. AGGAAGACATGGACCGGTTTTCCCGGTAATCCGTATTTGCA (site AGCCAGACTTG)  0.654
29. CTACTGACATGGACCGGTTTTCCCGGTAATCCGTATTTGGA (site CTACTGACTTC)  0.475
30. CTAGTCTCATGGACCGGTTTTCCCGGTAATCCGTATTTGTC (site CTAGTATCTGT)  0.445
31. ATTCAGACATGGACCGGTTTTCCCGGTAATCCGTATTTGGT (site ATTGAGACTAC)  0.305
32. CTCCACACATGGACCGGTTTTCCCGGTAATCCGTATTTGTA (site CGCCACACTTA)  0.289
33. CGGTAGCCATGGACCGGTTTTCCCGGTAATCCGTATTTGTT (site CGGTAGCCTAA)  0.237
34. GCGAAAACATGGACCGGTTTTCCCGGTAATCCGTATTTGCT (site GCGAACACTAG)  0.232
35. TCAGCATCATGGACCGGTTTTCCCGGTAATCCGTATTTGCA (site TCAGCATCTTG)  0.224
36. TCGAATTCATGGACCGGTTTTCCCGGTAATCCGTATTTGCC (site TCTAATTCTGG)  0.193
37. TGTTCACCATGGACCGGTTTTCCCGGTAATCCGTATTTGTA (site TGTTCCCCTTA)  0.104
38. GCCACGTCATGGACCGGTTTTCCCGGTAATCCGTATTTGTA (site GCCACGACTTA)  0.0796
39. ATAAGGCCATGGACCGGTTTTCCCGGTAATCCGTATTTGAC (site ATAAGGCCTCT)  0.0671
40. GATCTCACATGGACCGGTTTTCCCGGTAATCCGTATTTGAT (site GACCTCACTAT)  0.0659
41. TAGCTAGCATGGACCGGTTTTCCCGGTAATCCGTATTTGAA (site TAGCTAACTTT)  0.0471
42. GCGAAAACATGGACCGGTTTTCCCGGTAATCCGTATTTGCT (site GCGACAACTAG)  0.0316
43. TAGTTGGCATGGACCGGTTTTCCCGGTAATCCGTATTTGGG (site TAGTTGGCTCC)  0.0252
44. CGTTTGGCATGGACCGGTTTTCCCGGTAATCCGTATTTGCA (site CGTTTGGCTCG)  0.024
45. GCCACGCCATGGACCGGTTTTCCCGGTAATCCGTATTTGTT (site GCCACGCCTCA)  0.0173
46. CGATCGACATGGACCGGTTTTCCCGGTAATCCGTATTTGTT (site CAATCGACTAA)  0.0144
47. CTCCCTTCATGGACCGGTTTTCCCGGTAATCCGTATTTGAG (site CTCCCTACTCT)  0.0118
48. TTTGAGACATGGACCGGTTTTCCCGGTAATCCGTATTTGGT (site GTTGAGACTAC)  0.0113
49. CACTTGGCATGGACCGGTTTTCCCGGTAATCCGTATTTGGC (site CACTTGGCTCC)  0.0109
50. ACATCTCCATGGACCGGTTTTCCCGGTAATCCGTATTTGTG (site ACATCTCCTCA)  0.00967
51. CTAGGACCATGGACCGGTTTTCCCGGTAATCCGTATTTGGG (site CTAGGACCTCC)  0.0095
52. ACTAGTGCATGGACCGGTTTTCCCGGTAATCCGTATTTGGT (site ACTAGCGCTAC)  0.00815
53. CGATCGACATGGACCGGTTTTCCCGGTAATCCGTATTTGTT (site CGATAGACTAA)  0.00765
54. TACTTAACATGGACCGGTTTTCCCGGTAATCCGTATTTGCT (site TACTTGACTAG)  0.00699
55. GTTCGCGCATGGACCGGTTTTCCCGGTAATCCGTATTTGCA (site GTTCGTGCTTG)  0.00559
56. CGAGGACCATGGACCGGTTTTCCCGGTAATCCGTATTTGGT (site CGAGGACCTAC)  0.0053
57. CCGTTAGCATGGACCGGTTTTCCCGGTAATCCGTATTTGTG (site CCGTTTGCTCA)  0.00521
58. GTAATCGCATGGACCGGTTTTCCCGGTAATCCGTATTTGCG (site GTATTCGCTCG)  0.00488
59. TTCCACCCATGGACCGGTTTTCCCGGTAATCCGTATTTGTA (site TTCCACCCTTA)  0.00477
60. CGGACTTCATGGACCGGTTTTCCCGGTAATCCGTATTTGCT (site CGGACGTCTAG)  0
61. TTGAATTCATGGACCGGTTTTCCCGGTAATCCGTATTTGTT (site TTGAATTCTAA)  0
62. AGGAAGACATGGACCGGTTTTCCCGGTAATCCGTATTTGCA (site AGGTAGCCTTG)  0
63. GCCACGTCATGGACCGGTTTTCCCGGTAATCCGTATTTGTA (site GCCACGGCTTA)  0
64. ACAGAATCATGGACCGGTTTTCCCGGTAATCCGTATTTGGA (site ACAGTATCTTG)  0
65. TCCACCGCATGGACCGGTTTTCCCGGTAATCCGTATTTGCT (site TCCACCGCTAG)  0
66. GCCTTAGCATGGACCGGTTTTCCCGGTAATCCGTATTTGCC (site GCCTTAGCTGG)  0
67. GCCAAGCCATGGACCGGTTTTCCCGGTAATCCGTATTTGGG (site GCGAAGCCTCC)  0
68. CCCTAGCCATGGACCGGTTTTCCCGGTAATCCGTATTTGTC (site CCCTAGCCTGT)  0
69. GCCACCCCATGGACCGGTTTTCCCGGTAATCCGTATTTGTA (site GCCACGCCTTA)  0
70. TTTGCTGCATGGACCGGTTTTCCCGGTAATCCGTATTTGCT (site TTTGCGGCTAG)  0
71. AGGAAGACATGGACCGGTTTTCCCGGTAATCCGTATTTGCA (site AGGAGGACTTG)  0
72. ACAAGAACATGGACCGGTTTTCCCGGTAATCCGTATTTGTC (site ACATGAACTGA)  0
73. CCGAAACCATGGACCGGTTTTCCCGGTAATCCGTATTTGTT (site CCGAAACCTAA)  0
74. CAATTACCATGGACCGGTTTTCCCGGTAATCCGTATTTGCT (site CAATTCCCTAG)  0
75. CCCTTGCCATGGACCGGTTTTCCCGGTAATCCGTATTTGCC (site CCCTAGCCTGG)  0
